Measured values: ChEMBL document CHEMBL5523740, “Discovery of Potent and Selective c-Met Degraders for Hepatocellular Carcinoma Treatment” (J Med Chem, 2024)
Calls of active or inactive are those of the source. The calls are words filed in the database; no cut-off is given here.

Key:
[1] = Mean residence time (0 to infinity) in Sprague-Dawley rat at 1 mg/kg, iv by LC-MS/MS method; type: ADME, organism-based; conditions: in vivo
MHCC97H [2] = assay: Induction of apoptosis in human MHCC97H cells assessed as necrotic cells at 100 nM incubated for 24 hrs by Annexin-V-FITC/PI staining based flow cytometry analysis (reference value: 1.77%); type: functional
MHCC97H [3] = assay: Antitumor activity against human MHCC97H cells xenografted in BALB/c mouse assessed as tumor growth inhibition at 10 mg/kg, ip qd for 22 days and measured every 2 days; type: functional; conditions: 528 h, time 22 day, read-out: TGI
MHCC97H [4] = assay: Induction of apoptosis in human MHCC97H cells assessed as necrotic cells incubated for 24 hrs by Annexin-V-FITC/PI staining based flow cytometry analysis; type: functional, cell-based; conditions: dose 3-100 nM
MHCC97H [5] = assay: Induction of apoptosis in human MHCC97H cells assessed as late apoptotic cells at 3 nM incubated for 24 hrs by Annexin-V-FITC/PI staining based flow cytometry analysis (reference value: 4.24%); type: functional
[6] = target: T1, Hepatocyte growth factor receptor (Homo sapiens, UniProt P08581); assay: Induction of c-Met degradation in human MHCC97H cells incubated for 24 hrs by Western blotting analysis; type: cell-based
T1 sequence (P08581 whole entry): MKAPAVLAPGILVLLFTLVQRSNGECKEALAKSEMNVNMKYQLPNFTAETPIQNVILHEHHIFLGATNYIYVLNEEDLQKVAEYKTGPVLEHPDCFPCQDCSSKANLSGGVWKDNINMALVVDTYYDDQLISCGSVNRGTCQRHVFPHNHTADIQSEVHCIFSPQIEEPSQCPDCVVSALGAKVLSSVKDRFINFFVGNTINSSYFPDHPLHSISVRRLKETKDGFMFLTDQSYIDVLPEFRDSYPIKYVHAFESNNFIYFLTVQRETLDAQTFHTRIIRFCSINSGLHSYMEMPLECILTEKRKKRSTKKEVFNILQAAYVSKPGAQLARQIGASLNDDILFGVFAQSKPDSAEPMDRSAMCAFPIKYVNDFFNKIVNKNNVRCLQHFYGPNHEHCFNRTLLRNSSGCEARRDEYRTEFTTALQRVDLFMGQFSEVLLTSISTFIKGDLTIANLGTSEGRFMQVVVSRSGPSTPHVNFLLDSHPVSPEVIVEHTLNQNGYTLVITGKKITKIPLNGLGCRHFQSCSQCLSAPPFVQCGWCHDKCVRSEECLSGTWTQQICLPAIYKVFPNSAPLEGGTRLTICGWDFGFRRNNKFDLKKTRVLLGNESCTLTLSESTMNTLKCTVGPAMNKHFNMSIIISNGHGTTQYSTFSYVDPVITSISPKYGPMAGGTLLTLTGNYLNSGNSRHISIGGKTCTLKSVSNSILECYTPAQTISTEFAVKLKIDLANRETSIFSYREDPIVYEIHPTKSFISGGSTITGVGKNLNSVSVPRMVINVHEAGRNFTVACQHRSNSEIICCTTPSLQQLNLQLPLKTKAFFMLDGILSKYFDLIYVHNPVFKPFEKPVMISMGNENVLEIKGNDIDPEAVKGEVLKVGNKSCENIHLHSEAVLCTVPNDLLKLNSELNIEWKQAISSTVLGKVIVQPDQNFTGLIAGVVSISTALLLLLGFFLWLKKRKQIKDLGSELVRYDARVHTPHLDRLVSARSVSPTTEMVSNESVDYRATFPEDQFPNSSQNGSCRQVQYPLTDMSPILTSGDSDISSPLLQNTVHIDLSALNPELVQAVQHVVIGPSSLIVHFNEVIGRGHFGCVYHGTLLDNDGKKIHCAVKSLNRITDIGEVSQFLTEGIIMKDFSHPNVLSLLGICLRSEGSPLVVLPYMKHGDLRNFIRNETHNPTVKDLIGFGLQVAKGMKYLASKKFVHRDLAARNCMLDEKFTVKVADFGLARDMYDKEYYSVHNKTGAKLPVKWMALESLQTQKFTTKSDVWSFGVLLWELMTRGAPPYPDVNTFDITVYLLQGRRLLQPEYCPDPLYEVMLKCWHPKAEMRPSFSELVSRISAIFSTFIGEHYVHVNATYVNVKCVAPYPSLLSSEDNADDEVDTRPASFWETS

MHCC97H [7] = assay: Induction of cell cycle arrest in human MHCC97H cells assessed as accumulation of cells at G1 phase at 3 nM incubated for 24 hrs by PI staining based flow cytometry analysis (reference value: 70.4%); type: functional
MHCC97H [8] = assay: Induction of apoptosis in human MHCC97H cells assessed as viable cells at 10 nM incubated for 24 hrs by Annexin-V-FITC/PI staining based flow cytometry analysis (reference value: 86.3%); type: functional; conditions: read-out: Activity
Mus musculus [9] = assay: Downregulation of phosphorylated STAT3 level in BALB/c mouse tumor xenografted with human MHCC97H cells at 10 mg/kg, ip qd for 22 days and measured every 2 days by Western blotting analysis; type: functional, organism-based; conditions: time 22.0 day
[10] = Clearance in Sprague-Dawley rat at 10 mg/kg, po by LC-MS/MS method; type: ADME, organism-based; conditions: in vivo
MHCC97H [11] = assay: Inhibition of cell growth in human MHCC97H cells incubated for 5 days by microplate reader assay; type: functional, cell-based; conditions: time 5.0 day
[12] = Oral bioavailability in Sprague-Dawley rat at 10 mg/kg by LC-MS/MS method; type: ADME, organism-based; conditions: in vivo
MHCC97H [13] = assay: Antitumor activity against human MHCC97H cells xenografted in BALB/c mouse assessed as tumor growth inhibition at 20 mg/kg, po qd for 22 days and measured every 2 days; type: functional; conditions: 528 h, time 22 day, read-out: TGI
[14] = Toxicity in BALB/c mouse xenografted with human MHCC97H cells assessed as heart lesions at 10 mg/kg, ip qd for 22 days and measured every 2 days by H and E staining based assay; type: organism-based; conditions: in vivo, 528 h, time 22 day
[15] = Toxicity in BALB/c mouse xenografted with human MHCC97H cells assessed as reduction in body weight at 10 mg/kg, ip qd for 22 days and measured every 2 days; type: organism-based; conditions: in vivo, 528 h, time 22 day
BaF3 = assay: Antiproliferative activity against mouse BaF3 cells harboring TPR-MET D1228N mutant fusion protein incubated for 72 hrs by CellTiter-Glo reagent based assay; type: functional, cell-based; conditions: BaF3, 72 h
Mus musculus [16] = assay: Downregulation of c-Met protein level in BALB/c mouse tumor xenografted with human MHCC97H cells at 20 mg/kg, po qd for 22 days and measured every 2 days by Western blotting analysis; type: functional, organism-based; conditions: time 22.0 day
[17] = Cmax in Sprague-Dawley rat at 10 mg/kg, po by LC-MS/MS method; type: ADME, organism-based; conditions: in vivo
[18] = target: T1, Hepatocyte growth factor receptor; assay: Induction of c-Met degradation in human Huh-7 cells incubated for 24 hrs by Western blotting analysis; type: cell-based; conditions: dose 63-100 nM
[19] = Toxicity in BALB/c mouse xenografted with human MHCC97H cells assessed as spleen lesions at 10 mg/kg, ip qd for 22 days and measured every 2 days by H and E staining based assay; type: organism-based; conditions: in vivo, 528 h, time 22 day
MHCC97H [20] = assay: Induction of apoptosis in human MHCC97H cells assessed as necrotic cells at 10 nM incubated for 24 hrs by Annexin-V-FITC/PI staining based flow cytometry analysis (reference value: 1.77%); type: functional
MHCC97H [21] = assay: Antitumor activity against human MHCC97H cells xenografted in BALB/c mouse assessed as tumor growth inhibition at 20 mg/kg, po qd for 22 days and measured every 2 days by Ki67 staining based analysis; type: functional, organism-based; conditions: time 22.0 day
[22] = Toxicity in BALB/c mouse xenografted with human MHCC97H cells assessed as lung lesions at 10 mg/kg, ip qd for 22 days and measured every 2 days by H and E staining based assay; type: organism-based; conditions: in vivo, 528 h, time 22 day
[23] = Tmax in Sprague-Dawley rat at 1 mg/kg, iv by LC-MS/MS method; type: ADME, organism-based; conditions: in vivo
MHCC97H [24] = assay: Induction of apoptosis in human MHCC97H cells assessed as late apoptotic cells at 10 nM incubated for 24 hrs by Annexin-V-FITC/PI staining based flow cytometry analysis (reference value: 4.24%); type: functional
[25] = target: T1, Hepatocyte growth factor receptor; assay: Induction of c-Met degradation in human HepG2 cells incubated for 24 hrs by Western blotting analysis; type: cell-based; conditions: dose 63-100 nM
Mus musculus [26] = assay: Downregulation of phosphorylated STAT3 level in BALB/c mouse tumor xenografted with human MHCC97H cells at 20 mg/kg, po qd for 22 days and measured every 2 days by Western blotting analysis; type: functional, organism-based; conditions: time 22.0 day
[27] = Toxicity in BALB/c mouse xenografted with human MHCC97H cells assessed as lung lesions at 20 mg/kg, po qd for 22 days and measured every 2 days by H and E staining based assay; type: organism-based; conditions: in vivo, 528 h, time 22 day
Mus musculus [28] = assay: Downregulation of phosphorylated c-Met level in BALB/c mouse tumor xenografted with human MHCC97H cells at 10 mg/kg, ip qd for 22 days and measured every 2 days by Western blotting analysis; type: functional, organism-based; conditions: time 22.0 day
MHCC97H [29] = assay: Induction of cell cycle arrest in human MHCC97H cells assessed as accumulation of cells at G1 phase at 10 nM incubated for 24 hrs by PI staining based flow cytometry analysis (reference value: 70.4%); type: functional
MHCC97H [30] = assay: Induction of cell cycle arrest in human MHCC97H cells assessed as accumulation of cells at G2 phase at 100 nM incubated for 24 hrs by PI staining based flow cytometry analysis (reference value: 19.1%); type: functional

MRT inf [1]: 3.86 h
DC50 [6]: 226 nM
Activity ([6]; dose 63-100 nM): Dose-Dependent Effect
CL/F [10]: 199 L/h/kg
bioavailability [12]: 0.8%
IC50 (BaF3): 463 nM
Cmax [17]: 16.3 ng/mL
Activity [18]: Dose-Dependent Effect
Tmax [23]: 4.98 min
Activity [25]: Dose-Dependent Effect
SMILES: N#Cc1cccc(-c2ccc(=O)n(Cc3cccc(-c4ncc(OCC5CCN(CCCCCC(=O)NCC67CC8CC(CC(C8)C6)C7)CC5)cn4)c3)n2)c1
Activity (MHCC97H [2]): 1.35%
inhibition in vivo at 10 mg/kg (MHCC97H [3]): 61.5%
Activity (MHCC97H [4]): Dose-Dependent Effect
Activity (MHCC97H [5]): 3.76%
Activity (MHCC97H [7]): 74.6%
viability at 0.01 µM (MHCC97H [8]): 72.7%
Activity (Mus musculus [9]): Active
inhibition (MHCC97H [11]): Active
inhibition in vivo at 20 mg/kg (MHCC97H [13]): 52.5%
Activity [14]: Non-Toxic
Activity [15]: Non-Toxic
Activity (Mus musculus [16]): Active
Activity [19]: Non-Toxic
Activity (MHCC97H [20]): 1.4%
Activity (MHCC97H [21]): Active
Activity [22]: Non-Toxic
Activity (MHCC97H [24]): 6.18%
Activity (Mus musculus [26]): Active
Activity [27]: Non-Toxic
Activity (Mus musculus [28]): Active
Activity (MHCC97H [29]): 77.6%
Activity (MHCC97H [30]): 13.6%
